From patent US20240083897A1, “GCN2 MODULATING COMPOUNDS AND USES THEREOF” (HiberCell, Inc., priority 2021, published 2024) come the findings set out here.

pIC50: −log10 of the molar value. Like-named read-outs stand apart in the source and are kept apart here.

The assay deals with GCN2 (Homo sapiens (Human), UniProt Q9P2K8). Put plainly: TR-FRET biochemical assay for inhibition of GCN2. Background: TR-FRET usually uses a lanthanide donor and a delayed reading to cut background.
The mark [1] stands for this setting: GCN2 2 nM, 100 nM GFP-eIF2a, 150 μM ATP, TR-FRET.

The term pIC50 denotes −log10 of the IC50, conventionally taken in molar units.

Chain of GCN2 (Q9P2K8 whole entry): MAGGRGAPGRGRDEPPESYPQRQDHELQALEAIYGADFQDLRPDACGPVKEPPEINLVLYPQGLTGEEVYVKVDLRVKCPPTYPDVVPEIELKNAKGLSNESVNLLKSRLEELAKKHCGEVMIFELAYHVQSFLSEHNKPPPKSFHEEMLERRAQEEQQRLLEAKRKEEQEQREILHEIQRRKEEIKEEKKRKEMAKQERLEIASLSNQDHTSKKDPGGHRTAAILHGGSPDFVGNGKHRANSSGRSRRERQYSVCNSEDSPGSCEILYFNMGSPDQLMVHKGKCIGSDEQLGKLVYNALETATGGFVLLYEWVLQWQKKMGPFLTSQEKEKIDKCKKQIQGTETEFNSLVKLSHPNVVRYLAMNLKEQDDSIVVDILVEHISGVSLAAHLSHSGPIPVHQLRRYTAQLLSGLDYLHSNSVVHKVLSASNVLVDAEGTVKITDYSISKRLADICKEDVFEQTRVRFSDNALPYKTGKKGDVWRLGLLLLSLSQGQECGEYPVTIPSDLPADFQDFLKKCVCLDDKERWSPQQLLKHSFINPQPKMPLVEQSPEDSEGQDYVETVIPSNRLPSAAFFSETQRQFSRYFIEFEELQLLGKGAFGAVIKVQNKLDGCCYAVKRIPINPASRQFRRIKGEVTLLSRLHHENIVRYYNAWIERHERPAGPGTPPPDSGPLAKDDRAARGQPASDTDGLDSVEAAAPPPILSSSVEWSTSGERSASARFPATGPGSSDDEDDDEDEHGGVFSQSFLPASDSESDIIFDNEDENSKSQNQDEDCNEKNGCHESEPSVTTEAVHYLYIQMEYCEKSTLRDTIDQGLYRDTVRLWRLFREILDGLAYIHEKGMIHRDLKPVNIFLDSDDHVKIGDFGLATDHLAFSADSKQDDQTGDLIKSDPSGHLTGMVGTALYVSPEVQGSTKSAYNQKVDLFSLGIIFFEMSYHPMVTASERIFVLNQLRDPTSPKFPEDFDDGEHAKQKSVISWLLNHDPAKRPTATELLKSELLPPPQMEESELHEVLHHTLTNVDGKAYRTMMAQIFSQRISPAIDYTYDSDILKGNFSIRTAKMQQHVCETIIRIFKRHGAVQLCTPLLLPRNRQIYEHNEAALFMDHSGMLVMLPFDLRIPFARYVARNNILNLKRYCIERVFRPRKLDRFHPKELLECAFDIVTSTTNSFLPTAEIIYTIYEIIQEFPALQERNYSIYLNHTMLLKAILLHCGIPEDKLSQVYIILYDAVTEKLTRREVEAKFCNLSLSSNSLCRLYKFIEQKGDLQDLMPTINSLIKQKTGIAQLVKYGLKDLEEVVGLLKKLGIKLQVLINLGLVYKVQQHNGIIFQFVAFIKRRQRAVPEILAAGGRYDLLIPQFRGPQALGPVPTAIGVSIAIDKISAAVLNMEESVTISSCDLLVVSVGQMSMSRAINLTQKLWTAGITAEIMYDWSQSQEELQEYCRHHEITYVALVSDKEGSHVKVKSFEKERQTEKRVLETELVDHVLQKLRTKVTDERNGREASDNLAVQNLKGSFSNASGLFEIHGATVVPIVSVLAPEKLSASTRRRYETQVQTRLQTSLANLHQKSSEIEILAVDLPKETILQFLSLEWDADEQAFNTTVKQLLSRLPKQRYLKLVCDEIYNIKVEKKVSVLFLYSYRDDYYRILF

In turn, `COc1ncc(F)cc1S(=O)(=O)Nc1ccc(F)c(-c2ccc3c(-n4cnnn4)ncn3c2)c1F` [Compound 74, N-[2,4-difluoro-3-[1-(1,2,3,4-tetrazol-1-yl)imidazo[1,5-a]pyridin-6-yl]phenyl]-5-fluoro-2-methoxypyridine-3-sulfonamide] showed a negative logarithm of the IC50 (pIC50) under setting [1] of more than 7.30. In turn, `CNC(=O)c1ncn2cc(-c3c(F)ccc(NS(=O)(=O)c4cc(Cl)cnc4OC)c3F)sc12` [Compound 120, 2-[3-(5-chloro-2-methoxypyridine-3-sulfonamido)-2,6-difluorophenyl]-N-methylimidazo[4,3-b][1,3]thiazole-7-carboxamide] showed a pIC50 of 6.00 to 6.30. In turn, `CNC(=O)c1ncc2cc(-c3c(F)ccc(NS(=O)(=O)c4cc(Cl)cnc4OC)c3F)ccn12` [Compound 30, 7-[3-(5-chloro-2-methoxypyridine-3-sulfonamido)-2,6-difluorophenyl]-N-methylimidazo[1,5-a]pyridine-3-carboxamide] had a pIC50 under setting [1] of more than 7.30. In turn, `COc1ncc(Cl)cc1S(=O)(=O)Nc1ccc(F)c(-c2ccc3c(-c4ncc[nH]4)ncn3c2)c1Cl` [Compound 103, 5-chloro-N-[2-chloro-4-fluoro-3-[1-(1H-imidazol-2-yl)imidazo[1,5-a]pyridin-6-yl]phenyl]-2-methoxypyridine-3-sulfonamide] gave a pIC50 under setting [1] of more than 7.30. On to `Cc1ncc(F)cc1S(=O)(=O)Nc1ccc(F)c(-c2ccc3c(-c4ncc(CO)[nH]4)ncn3c2)c1F` [Compound 51, N-(2,4-difluoro-3-[1-[4-(hydroxymethyl)-3H-imidazol-2-yl]imidazo[1,5-a]pyridin-6-yl]phenyl)-5-fluoro-2-methylpyridine-3-sulfonamide], for which the pIC50 under setting [1] is more than 7.30.

`COc1ncc(Cl)cc1S(=O)(=O)Nc1ccc(F)c(-c2cn3cnc(C(=O)Nc4cnn(C)c4)c3cn2)c1F` [Compound 162, 6-[3-(5-chloro-2-methoxypyridine-3-sulfonamido)-2,6-difluorophenyl]-N-(1-methylpyrazol-4-yl)imidazo[1,5-a]pyrazine-1-carboxamide] showed a pIC50 under setting [1] of more than 7.30.

In turn, `CNC(=O)c1ncn2cc(-c3c(Cl)ccc(NS(=O)(=O)c4cc(Cl)cnc4OC)c3F)ccc12` [Compound 137, 6-[6-chloro-3-(5-chloro-2-methoxypyridine-3-sulfonamido)-2-fluorophenyl]-N-methylimidazo[1,5-a]pyridine-1-carboxamide] gave a negative-log IC50 (pIC50) under setting [1] of more than 7.30.

In turn, `CNC(=O)c1ncn2cc(-c3c(F)ccc(NS(=O)(=O)c4cc(Cl)cnc4OCC(C)C)c3F)ncc12` [Compound 176, 6-[3-[5-chloro-2-(2-methylpropoxy)pyridine-3-sulfonamido]-2,6-difluorophenyl]-N-methylimidazo[1,5-a]pyrazine-1-carboxamide] had a pIC50 of 6.00 to 6.30. In turn, `COc1ncc(F)cc1S(=O)(=O)Nc1ccc(F)c(-c2cn3cnc(-c4nnc(C)[nH]4)c3cn2)c1F` [Compound 127, N-[2,4-difluoro-3-[1-(5-methyl-4H-1,2,4-triazol-3-yl)imidazo[1,5-a]pyrazin-6-yl]phenyl]-5-fluoro-2-methoxypyridine-3-sulfonamide] showed a pIC50 of 6.30 to 7.30. As to `COc1ncc(F)cc1S(=O)(=O)Nc1ccc(F)c(-c2cn3cnc(-c4ncc[nH]4)c3cn2)c1F` [Compound 78, N-[2,4-difluoro-3-[1-(1H-imidazol-2-yl)imidazo[1,5-a]pyrazin-6-yl]phenyl]-5-fluoro-2-methoxypyridine-3-sulfonamide], the negative-log IC50 (pIC50) under setting [1] is more than 7.30. On the same count and under the same terms, the same measure for `COc1ncc(Cl)cc1S(=O)(=O)Nc1ccc(F)c(-c2cn3cnc(C(=O)NCC(F)(F)F)c3cn2)c1F` [Compound 159, 6-[3-(5-chloro-2-methoxypyridine-3-sulfonamido)-2,6-difluorophenyl]-N-(2,2,2-trifluoroethyl)imidazo[1,5-a]pyrazine-1-carboxamide]: more than 7.30.

In turn, `COc1ncc(C#N)cc1S(=O)(=O)Nc1ccc(F)c([C@@H]2CCc3c(-c4ncc[nH]4)ncn3C2)c1F` [Compound 82-2, 5-cyano-N-[2,4-difluoro-3-[(6S)-1-(1H-imidazol-2-yl)-5H,6H,7H,8H-imidazo[1,5-a]pyridin-6-yl]phenyl]-2-methoxypyridine-3-sulfonamide] gave a pIC50 of 6.30 to 7.30. On to `COc1ncc(F)cc1S(=O)(=O)Nc1ccc(F)c(-c2cn3cnc(-c4ncc[nH]4)c3cn2)c1Cl` [Compound 151, N-[2-chloro-4-fluoro-3-[1-(1H-imidazol-2-yl)imidazo[1,5-a]pyrazin-6-yl]phenyl]-5-fluoro-2-methoxypyridine-3-sulfonamide], for which the pIC50 under setting [1] was more than 7.30. Still for that read-out and setting: for `COc1ncc(Cl)cc1S(=O)(=O)Nc1ccc(F)c(-c2cn3cnc(C(N)=O)c3cn2)c1F` [Compound 171, 6-[3-(5-chloro-2-methoxypyridine-3-sulfonamido)-2,6-difluorophenyl]imidazo[1,5-a]pyrazine-1-carboxamide] the value was more than 7.30; for `COc1ncc(F)cc1S(=O)(=O)Nc1ccc(F)c(-c2cn3cnc(-c4nc(-c5ccccc5)c[nH]4)c3cn2)c1F` [Compound 156, N-[2,4-difluoro-3-[1-(4-phenyl-1H-imidazol-2-yl)imidazo[1,5-a]pyrazin-6-yl]phenyl]-5-fluoro-2-methoxypyridine-3-sulfonamide], more than 7.30. `COc1ncc(F)cc1S(=O)(=O)Nc1ccc(F)c([C@@H]2CCc3c(-c4nnc(C)[nH]4)ncn3C2)c1F` [Compound 131-1, N-[2,4-difluoro-3-[(6S)-1-(5-methyl-4H-1,2,4-triazol-3-yl)-5H,6H,7H,8H-imidazo[1,5-a]pyridin-6-yl]phenyl]-5-fluoro-2-methoxypyridine-3-sulfonamide]: under setting [1], the pIC50 was more than 7.30. Under setting [1], `CNC(=O)c1ncn2cc(-c3c(F)ccc(NS(=O)(=O)c4cc(C#N)cnc4C)c3F)ccc12` [Compound 9, 6-[3-(5-cyano-2-methylpyridine-3-sulfonamido)-2,6-difluorophenyl]-N-methylimidazo[1,5-a]pyridine-1-carboxamide] gave a pIC50 of more than 7.30.

`CNC(=O)c1ncn2cc(-c3c(F)ccc(NS(=O)(=O)c4cc(Cl)cnc4OC)c3F)c(OC)nc12` [Compound 17, 3-[3-(5-chloro-2-methoxypyridine-3-sulfonamido)-2,6-difluorophenyl]-2-methoxy-N-methylimidazo[1,5-a]pyrimidine-8-carboxamide] showed a pIC50 of 6.30 to 7.30. Still for that read-out and setting: for `COc1ncc(Cl)cc1S(=O)(=O)Nc1ccc(F)c(-c2cn3cnc(C(=O)NCCN(C)C)c3cn2)c1F` [Compound 179, 6-[3-(5-chloro-2-methoxypyridine-3-sulfonamido)-2,6-difluorophenyl]-N-[2-(dimethylamino)ethyl]imidazo[1,5-a]pyrazine-1-carboxamide] the value was 6.30 to 7.30. Consider `COc1ncc(C#N)cc1S(=O)(=O)Nc1ccc(F)c(-c2ccc3c(-c4nc(C)c(C)[nH]4)ncn3c2)c1F` [Compound 126, 5-cyano-N-[3-[1-(4,5-dimethyl-1H-imidazol-2-yl)imidazo[1,5-a]pyridin-6-yl]-2,4-difluorophenyl]-2-methoxypyridine-3-sulfonamide], for which the pIC50 under setting [1] was more than 7.30. Regarding `COc1ncc(F)cc1S(=O)(=O)Nc1ccc(F)c(-c2cn3cnc(-c4nc5ccccc5[nH]4)c3cn2)c1F` [Compound 111, N-[3-[1-(1H-1,3-benzodiazol-2-yl)imidazo[1,5-a]pyrazin-6-yl]-2,4-difluorophenyl]-5-fluoro-2-methoxypyridine-3-sulfonamide], the pIC50 under setting [1] was more than 7.30.

The molecule `COc1ncc(Cl)cc1S(=O)(=O)Nc1ccc(F)c([C@@H]2CCn3c(cnc3-c3ncc[nH]3)C2)c1F` [Compound 64-1, (R)—N-(3-(3-(1H-imidazol-2-yl)-5,6,7,8-tetrahydroimidazo[1,5-a]pyridin-7-yl)-2,4-difluorophenyl)-5-chloro-2-methoxypyridine-3-sulfonamide] gave a pIC50 under setting [1] of more than 7.30. Under setting [1], `COc1ncc(C#N)cc1S(=O)(=O)Nc1ccc(F)c(-c2ccc3c(-c4nnc(C)[nH]4)ncn3c2)c1F` [Compound 59, 5-cyano-N-[2,4-difluoro-3-[1-(5-methyl-4H-1,2,4-triazol-3-yl)imidazo[1,5-a]pyridin-6-yl]phenyl]-2-methoxypyridine-3-sulfonamide] gave a pIC50 of more than 7.30. Same read-out and setting: the same measure for `Cc1ncc(Cl)cc1S(=O)(=O)Nc1ccc(F)c(-c2ccc3c(-c4ccno4)ncn3c2)c1F` [Compound 121, 5-chloro-N-[2,4-difluoro-3-[1-(1,2-oxazol-5-yl)imidazo[1,5-a]pyridin-6-yl]phenyl]-2-methylpyridine-3-sulfonamide]: more than 7.30. The same measure, in the same setting: the same measure for `Cc1ncc(F)cc1S(=O)(=O)Nc1ccc(F)c(-c2ccc3c(-c4ncc[nH]4)ncn3c2)c1F` [Compound 19, N-[2,4-difluoro-3-[1-(1H-imidazol-2-yl)imidazo[1,5-a]pyridin-6-yl]phenyl]-5-fluoro-2-methylpyridine-3-sulfonamide]: more than 7.30; for `COc1ncc(Cl)cc1S(=O)(=O)Nc1ccc(F)c(-c2ccc3c(-c4ccno4)ncn3c2)c1F` [Compound 99, 5-chloro-N-(2,4-difluoro-3-(1-(isoxazol-5-yl)imidazo[1,5-a]pyridin-6-yl)phenyl)-2-methoxypyridine-3-sulfonamide]: more than 7.30. In turn, `CNC(=O)c1ncn2c1CN(C)[C@@H](c1c(F)ccc(NS(=O)(=O)c3cc(Cl)cnc3OC)c1F)C2` (single isomer, unassigned) [Compound 33-2] showed a pIC50 of 6.00 to 6.30. In turn, `COc1ncc(F)cc1S(=O)(=O)Nc1ccc(F)c(-c2cn3cnc(-c4nc(Cc5ccccc5)c[nH]4)c3cn2)c1F` [Compound 178, N-[3-[1-(4-benzyl-1H-imidazol-2-yl)imidazo[1,5-a]pyrazin-6-yl]-2,4-difluorophenyl]-5-fluoro-2-methoxypyridine-3-sulfonamide] had a negative-log IC50 (pIC50) under setting [1] of more than 7.30. The same measure, in the same setting: for `COc1ncc(F)cc1S(=O)(=O)Nc1ccc(F)c(-c2ccc3c(-c4nnc[nH]4)ncn3c2)c1F` [Compound 70, N-[2,4-difluoro-3-[1-(4H-1,2,4-triazol-3-yl)imidazo[1,5-a]pyridin-6-yl]phenyl]-5-fluoro-2-methoxypyridine-3-sulfonamide] the value was more than 7.30.
